{"source": "patent US5053070A", "about": "“Pyrimidine derivatives, preparation processes thereof, herbicide containing the same, and herbicidal compositions containing the same along with other active ingredient” (Mitsui Toatsu Chemicals, Incorporated, priority 1988, dated 1991)", "key": {"[1]": {"test_system": "ALS (acetolactate syntase)", "experiment": "ALS enzyme assay (Test 1)", "assay_type": "biochemical, barnyardgrass", "details": "1,000 ppm (0.5 mg/0.5 ml)", "procedure,_shortened": "(§1)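 Partially purified ALS from dark-grown pea and barnyardgrass seedlings incubated 1 h at 30° C with pyruvate, TPP, MgCl2 and FAD. Compounds tested at 1,000 ppm (0.5 mg/0.5 ml). Acetoin formed detected colorimetrically at 525 nm via creatine/α-naphthol, relative to blank and acid-stopped controls.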"}, "[2]": {"test_system": "ALS (acetolactate syntase)", "experiment": "ALS enzyme assay (Test 1)", "assay_type": "biochemical, pea", "details": "1,000 ppm (0.5 mg/0.5 ml)", "procedure,_shortened": "as §1"}, "cotton": {"test_system": "cotton", "experiment": "Upland soil application test (Test 2), crop injury", "assay_type": "in vivo", "details": "30 g ai/a, soil spray before emergence, 30 days later", "procedure,_shortened": "(§2)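 Steps: fill pots with fertilized upland field soil containing uniformly mixed weed seed; sow crops and cover with 2-3 cm soil; after one day, spray the diluted wettable powder evenly over the soil at 10 l per are; assess at 30 days against untreated controls by dry weight.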"}, "peanut": {"test_system": "peanut", "experiment": "Upland soil application test (Test 2), crop injury", "assay_type": "in vivo", "details": "30 g ai/a, soil spray before emergence, 30 days later", "procedure,_shortened": "as §2"}, "soybean": {"test_system": "soybean", "experiment": "Upland soil application test (Test 2), crop injury", "assay_type": "in vivo", "details": "30 g ai/a, soil spray before emergence, 30 days later", "procedure,_shortened": "as §2"}, "barnyardgrass": {"test_system": "barnyardgrass", "experiment": "Upland foliar application test (Test 3)", "assay_type": "in vivo", "details": "30 g ai/a, foliar spray at 2-3 leaves, 30th day", "procedure,_shortened": "(§3)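 Greenhouse pots, upland soil; seedlings at 2-3 leaves. Foliar ULV spray of water-diluted emulsion, 5 l/are. Injury/damage rated 30 d after spraying.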"}, "common lambsquarters": {"test_system": "common lambsquarters", "experiment": "Upland foliar application test (Test 3)", "assay_type": "in vivo", "details": "30 g ai/a, foliar spray at 2-3 leaves, 30th day", "procedure,_shortened": "as §3"}, "foxtail meadow": {"test_system": "foxtail meadow", "experiment": "Upland foliar application test (Test 3)", "assay_type": "in vivo", "details": "30 g ai/a, foliar spray at 2-3 leaves, 30th day", "procedure,_shortened": "as §3"}, "green foxtail": {"test_system": "green foxtail", "experiment": "Upland foliar application test (Test 3)", "assay_type": "in vivo", "details": "30 g ai/a, foliar spray at 2-3 leaves, 30th day", "procedure,_shortened": "as §3"}, "johnsongrass": {"test_system": "johnsongrass", "experiment": "Upland foliar application test (Test 3)", "assay_type": "in vivo", "details": "30 g ai/a, foliar spray at 2-3 leaves, 30th day", "procedure,_shortened": "as §3"}, "large crabgrass": {"test_system": "large crabgrass", "experiment": "Upland foliar application test (Test 3)", "assay_type": "in vivo", "details": "30 g ai/a, foliar spray at 2-3 leaves, 30th day", "procedure,_shortened": "as §3"}, "redroot pigweed": {"test_system": "redroot pigweed", "experiment": "Upland foliar application test (Test 3)", "assay_type": "in vivo", "details": "30 g ai/a, foliar spray at 2-3 leaves, 30th day", "procedure,_shortened": "as §3"}, "rice": {"test_system": "rice", "experiment": "Treatment of soil under submerged condition, post-emergence (Test 5), injury", "assay_type": "in vivo", "details": "30 g ai/a granule, 30 days later", "procedure,_shortened": "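Granule applied to submerged greenhouse pots at two-leaf barnyardgrass; transplanted 2–3-leaf rice present; weed damage and rice injury graded 30 days on.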"}, "narrowleaf waterplantain": {"test_system": "narrowleaf waterplantain", "experiment": "Petri dish test (Test 6)", "assay_type": "in vivo", "details": "336 h; seeds on filter paper, 25° C., 14 days; read-out: I80 (ppm)", "procedure,_shortened": "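Narrowleaf waterplantain seeds placed on filter paper pre-treated with compound in acetone (solvent air-dried) in 9 cm Petri dishes with 10 ml water, grown at 25° C in light. Growth was scored after fourteen days as degree of damage against an untreated group.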"}}}
{"compound": "COc1cc(OC)nc(Oc2ccccc2C=NOCC=Cc2ccc(F)cc2)n1", "note": "[compound 29]", "values": [{"measurement": "Inhibitory activity (%) Barnyardgrass", "setting": "[1]", "value": 98, "unit": "%"}, {"measurement": "Inhibitory activity (%) Pea", "setting": "[2]", "value": 11, "unit": "%"}, {"measurement": "Injury Cotton", "setting": "cotton", "value": "0 (91-100 (No damages))"}, {"measurement": "Injury Peanut", "setting": "peanut", "value": "0 (91-100 (No damages))"}, {"measurement": "Injury Soybean", "setting": "soybean", "value": "0 (91-100 (No damages))"}, {"measurement": "Herbicidal effects Barnyardgrass", "setting": "barnyardgrass", "value": "5 (0-5 (Death))"}, {"measurement": "Herbicidal effects Common lambsquarters", "setting": "common lambsquarters", "value": "4 (6-10 (Severe damages))"}, {"measurement": "Herbicidal effects Foxtail meadow", "setting": "foxtail meadow", "value": "4 (6-10 (Severe damages))"}, {"measurement": "Herbicidal effects Green foxtail", "setting": "green foxtail", "value": "4 (6-10 (Severe damages))"}, {"measurement": "Herbicidal effects Johnsongrass", "setting": "johnsongrass", "value": "5 (0-5 (Death))"}, {"measurement": "Herbicidal effects Large crabgrass", "setting": "large crabgrass", "value": "4 (6-10 (Severe damages))"}, {"measurement": "Herbicidal effects Redroot pigweed", "setting": "redroot pigweed", "value": "5 (0-5 (Death))"}, {"measurement": "Injury Rice", "setting": "rice", "value": "1 (71-90 (Slight damages))"}, {"measurement": "IC80", "setting": "narrowleaf waterplantain", "value": 8, "unit": "µg/mL"}]}
